Experimental data reported in patent US6759064B2, “Compositions based on vanilloid-catechin synergies for prevention and treatment of cancer” (Purdue Research Foundation, priority 2001, dated 2004).
Counter-ions that a name gives are not always drawn. Like-named read-outs stand apart in the source and are kept apart here.

Experiments:
[1] = molecular target: T1, NADH oxidase (tNOX) of 4T1 cells (Mus musculus, UniProt Q8R0Z2); assay: inhibition of NADH oxidase (tNOX) activity of 4T1 cells; assay type: biochemical
T1 construct: endogenous in cells; host or cells: 4T1 mouse mammary tumor cells
T1 sequence (Q8R0Z2 1-598): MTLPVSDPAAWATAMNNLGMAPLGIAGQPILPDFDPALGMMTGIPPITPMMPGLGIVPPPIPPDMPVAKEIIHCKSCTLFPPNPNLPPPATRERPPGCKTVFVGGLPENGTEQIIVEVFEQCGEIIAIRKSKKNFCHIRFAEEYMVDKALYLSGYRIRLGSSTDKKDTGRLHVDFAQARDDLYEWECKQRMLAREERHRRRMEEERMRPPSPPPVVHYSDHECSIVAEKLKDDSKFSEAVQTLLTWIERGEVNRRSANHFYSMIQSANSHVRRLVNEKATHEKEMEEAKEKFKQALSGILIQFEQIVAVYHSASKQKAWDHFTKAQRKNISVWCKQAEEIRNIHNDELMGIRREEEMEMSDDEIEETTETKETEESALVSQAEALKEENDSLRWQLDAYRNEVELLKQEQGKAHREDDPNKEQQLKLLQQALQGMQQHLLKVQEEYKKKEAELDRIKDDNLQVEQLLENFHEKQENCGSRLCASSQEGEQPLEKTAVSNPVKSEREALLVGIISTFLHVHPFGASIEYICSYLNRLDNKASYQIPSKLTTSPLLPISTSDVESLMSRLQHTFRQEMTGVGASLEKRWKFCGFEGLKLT
Method: (§1) HeLa (ATCC CCL2) cells were grown in 150 cm^2 flasks in Minimal Essential Medium (Gibco), pH 7.4, at 37° C. with 10% bovine calf serum (heat inactivated, plus 50 mg/l gentamicin sulfate (Sigma). A mouse mammary tumor subpopulation line 4T1 arising from a BALB/cfC3H mouse (Miller et al., 1981, Brit. J. Cancer 56:561 and Miller et al., 1990, Invasion Metastasis 10:101) was grown in DME 10, Dulbecco's modified Eagle's medium supplemented with 5% fetal calf serum, 5% newborn calf serum, 1 mM mixed non-essential amino acids, 2 mM L-glutamine, penicillin (100 units/ml), and streptomycin (100 μg/ml).
(§2) NADH oxidase activity may be monitored and measured by virtue of the decrease in absorbance at 340 nm wavelength. A millimolar extinction coefficient of 6.22 for NADH was used to calculate rates of NADH oxidation. Additional tests are such as those described by Morre, 1994, Bioenerg. Biomemb. 26:421, and Chueh et al., 1997, J. Biol. Chem. 272:11221, which are incorporated by reference in their entireties.

4T1 cells = assay: growth of 4T1 cells over 48 h, 96-well plate assay; assay type: cell-based, mouse; settings: 4T1, 48 h
Method: as §1
Cells were quantitated using a standard cytotoxicity assay (Matthews & Neale, 1987, In Lymphokines and Interferons. A Practical Approach. Clemens, M. J. et al., eds. IRL Press, Oxford, p. 221).

[2] = molecular target: T2, NADH oxidase (tNOX) of HeLa cells (Homo sapiens, UniProt Q16206); assay: inhibition of NADH oxidase (tNOX) activity of HeLa cells; assay type: biochemical
T2 construct: endogenous in cells; host or cells: HeLa (ATCC CCL2)
T2 sequence (Q16206 1-610): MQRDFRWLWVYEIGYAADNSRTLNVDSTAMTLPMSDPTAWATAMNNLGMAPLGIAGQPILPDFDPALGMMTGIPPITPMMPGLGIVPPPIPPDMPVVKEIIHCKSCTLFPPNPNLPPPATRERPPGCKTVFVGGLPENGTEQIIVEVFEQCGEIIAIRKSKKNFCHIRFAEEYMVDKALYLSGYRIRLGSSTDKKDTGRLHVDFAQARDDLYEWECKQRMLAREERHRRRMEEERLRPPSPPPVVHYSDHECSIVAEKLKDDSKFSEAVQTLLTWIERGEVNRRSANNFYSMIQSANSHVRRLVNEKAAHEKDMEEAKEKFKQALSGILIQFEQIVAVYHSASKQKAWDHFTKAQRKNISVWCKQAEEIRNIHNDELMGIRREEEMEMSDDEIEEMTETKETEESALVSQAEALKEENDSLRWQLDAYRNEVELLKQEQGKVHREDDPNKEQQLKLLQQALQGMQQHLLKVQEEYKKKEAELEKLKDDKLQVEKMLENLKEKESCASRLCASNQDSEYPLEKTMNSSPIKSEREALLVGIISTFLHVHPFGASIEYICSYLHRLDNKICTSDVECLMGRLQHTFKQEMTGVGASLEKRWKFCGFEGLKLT
Method: as §1, §2

HeLa cells = assay: growth of HeLa cells in culture, 96-well plate assay; assay type: cell-based, human; settings: for A580, % of no addition / Growth, % of control: HeLa; for Growth, % of control: no source
[3] = test system: 4T1 mouse mammary carcinoma cells; assay: tumor weight and metastases of 4T1 mouse mammary carcinoma cells in BALBc mice; assay type: in vivo
Method: Cells from monolayer culture were suspended in Hank's buffered salt solution and 1×10^6 cells were injected into the subscapular region in a volume of 0.1 ml.
Anti-metastatic drugs were administered in the dose/injection indicated intratumoral in 0.1 ml total volume on alternate days beginning after palpable tumor masses were discernible (approximately 7 days post implantation) for a total of 6 injections. Appropriate solvent and sham-injected controls were included. At […] post tumor implantations, mice were sacrificed and major organs (e.g., lung, liver, lymph nodes) were examined for evidence of metastases.

NADH oxidase = molecular target: T3, NADH oxidase (Homo sapiens, UniProt Q16206); assay: NADH oxidase assay, genestein interactions (data not shown); assay type: biochemical
T3 sequence (Q16206 1-610): T2 sequence (Q16206 1-610)
Description: as §2

cancer cells = assay: cancer cell growth and apoptosis under EGCg; assay type: cell-based
[4] = clearance of EGCg from the blood; settings: in vivo

Molecule: COc1cc(CN)ccc1O [Vanillylamine, 4-hydroxy-3-methoxybenzy amine hydrochloride]
- EC50 ([1]; 4T1, 1.5 × 10^6 cells (Table 2), read-out: EC50(M), inhibition of NADH oxidase): 5e-09 M
- A580, % of no addition (4T1 cells; final concentration 1 μM): 144 % of no addition
- EC50 ([2]; HeLa, 1.5 × 10^6 cells (Table 2), read-out: EC50(M), inhibition of NADH oxidase): 1e-09 M
- A580, % of no addition (HeLa cells; 48 h, final concentration 1 μM): 128 % of no addition
- Growth, % of control (HeLa cells; 48 h, vanillylamine 1:150): 130 % of control
- Growth, % of control (HeLa cells; 72 h, vanillylamine 1:150): 120 % of control
- Tumor weight ([3]; BALBc mice, intratumoral on alternate days, 6 injections, sacrifice 15 days post implantation): 0.50 ± 0.20
- neurological discomfort and possible toxicity ([3]; mouse model): without the neurological discomfort and possible toxicity
- prevention of metastasis in a mouse model ([3]; mouse model): effective
- Tumor growth and metastatic spread ([3]; three animals): prevented

Molecule: O=c1c(-c2ccc(O)cc2)coc2cc(O)cc(O)c12 [genestein]
- synergy with either vanillylamine or EGCg in the NADH oxidase assay (NADH oxidase): did not exhibit
- growth of HeLa cells (HeLa cells; data not shown): inhibited
- interactions of genestein with EC or Tegreen (HeLa cells; data not shown): additive
- inhibition of growth of HeLa cells (HeLa cells; genestein at 10 μM): 87%
- toxicity (HeLa cells; genestein at 100 μM): toxic
- interactions with EGCg on growth of HeLa cells (HeLa cells; higher genestein concentrations): no interactions were seen
- interactions with 1 μM EGCg on growth of HeLa cells (HeLa cells; low genestein concentrations, data not shown): additive

Molecule: (−)-epigallocatechin gallate [EGCg]
- growth of cancer cells (cancer cells; challenged with 10^−7 M EGCg every two hours during the day): inhibited
- reversibility of the effect on cancer cell growth (cancer cells; if the EGCg is removed, cancer cells resume normal rates of growth): reversible
- EC50 ([1]; 4T1 cells grown in culture (Table 3), read-out: EC50(M), inhibition of tNOX activity): 1e-08 M
- clearance from the blood [4]: rapidly cleared from the blood and metabolized
- A580, % of no addition (4T1 cells; final concentration 20 μM): 58 % of no addition
- EC50 ([2]; HeLa cells grown in culture (Table 3), read-out: EC50(M), inhibition of tNOX activity): 1e-07 M
- inhibition of growth of HeLa cells (HeLa cells; EGCg at 1 μM): 12%
- A580, % of no addition (HeLa cells; 48 h, final concentration 20 μM): 90 % of no addition
- Growth, % of control (HeLa cells; 48 h, EGCg 1:150): 112 % of control
- Growth, % of control (HeLa cells; 72 h, EGCg 1:150): 97 % of control
